Where two headings read alike, the source gives them in different places.
Tests used:
[1] = biological target: T1, HIF-2α HIS TAG-PASB Domain (Homo sapiens, UniProt Q99814); test: HIF-2α Scintillation Proximity Assay (SPA); format: binding
T1 construct: 100 nM HIF-2α HIS TAG-PASB Domain
Summary of the method: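 IC50 values rest on percent inhibition, where the sample signal is scaled between high and low controls. Wells contain about 100 μL: compound dispensed as 2 μL of DMSO solution, 88 μL protein-probe mix and 10 μL of beads.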

786-O-Hif-Luc cells = test: Luciferase Assay (HIF responsive elements reporter)
Protocol: A pool of infected cells were then selected against 2 μg/mL of puromycin (P8833, Sigma) for 10 days followed by limited dilution to select single clones. […] Each concentration was tested in triplicate. After about 24 hours, luciferase activity was determined using ONE-Glo Luciferase Assay Reagent (E6110, Promega) following the manufacturer's recommended procedure. EC50 were calculated using Dotmatics software.

[2] = read-out: Scintillation Proximity Assay IC50
[3] = read-out: Mean Luciferase EC50 (nM), 786-O-Hif-Luc cells
[4] = Scintillation Proximity Assay IC50 (nM)
[5] = read-out: Mean Luciferase EC50 (nM)

T1 sequence (Q99814 240-350 limits assumed): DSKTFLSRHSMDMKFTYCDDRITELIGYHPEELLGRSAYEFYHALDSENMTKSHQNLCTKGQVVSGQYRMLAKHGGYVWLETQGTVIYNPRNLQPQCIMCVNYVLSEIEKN

IC50 [1, 2] | EC50 (786-O-Hif-Luc cells; [3]) | EC50 (786-O-Hif-Luc cells; [5]) | SMILES | IC50 [1, 4]
250 to 1000 nM | 250 to 1000 nM | – | CCOc1ccc(S(=O)(=O)C(F)(F)F)c2c1CC(F)(F)C2O (stereo not drawn) [Compound 591] | –
< 50 nM | 250 to 1000 nM | – | O=S(=O)(c1ccc([C@H]2CCC[C@@H](O)C2)c2c1[C@H](O)C(F)(F)C2)C(F)(F)F [Compound 483] | –
250 to 1000 nM | > 1000 nM | – | O=S(=O)(c1ccc(-c2ccccc2)c2c1[C@H](O)C(F)(F)C2)C(F)(F)F [Compound 487, (S)-2,2-difluoro-4-phenyl-7-((trifluoromethyl)sulfonyl)-2,3-dihydro-1H-inden-1-ol] | –
50 to 249 nM | 250 to 1000 nM | – | O=S(=O)(c1ccc(-c2ccc(Cl)cc2)c2c1[C@H](O)C(F)(F)C2)C(F)(F)F [Compound 563] | –
50 to 249 nM | 50 to 249 nM | – | O[C@H]1c2c(C(F)(F)F)ccc(OCC(F)F)c2C[C@@H]1F [Compound 697] | –
50 to 249 nM | 50 to 249 nM | – | N#CN=S(=O)(CF)c1ccc(Oc2cc(F)cc(C#N)c2)c2c1[C@H](O)[C@H](F)C2 (stereo partly drawn) [Compound 276] | –
250 to 1000 nM | > 1000 nM | – | Cc1cc(S(=O)(=O)C(F)F)ccc1Oc1cc(F)cc(Cl)c1 [Compound 135] | –
< 50 nM | 250 to 1000 nM | – | Cc1c(S(C)(=O)=O)ccc(Oc2cc(F)cc(F)c2)c1C#N [Compound 52] | –
50 to 249 nM | 250 to 1000 nM | – | N#Cc1c(Oc2cc(F)cc(F)c2)ccc2c1[C@@H](O)CS2(=O)=O [Compound 414] | –
> 1000 nM | > 1000 nM | – | N[C@H]1C[C@@H](Oc2ccc(S(=O)(=O)C(F)(F)F)c3c2CC(F)(F)[C@H]3O)C1 [Compound 724] | –
50 to 249 nM | 50 to 249 nM | – | N#CN=S(=O)(CF)c1ccc(Oc2cc(F)cc(C#N)c2)c2c1[C@H](O)C(F)(F)C2 (stereo partly drawn) [Compound 285] | –
< 50 nM | < 50 nM | – | N#CC1(COc2ccc(S(=O)(=O)C(F)(F)F)c3c2CC(F)(F)[C@H]3O)CCC1 [Compound 790] | –
250 to 1000 nM | > 1000 nM | – | N#Cc1cc(F)cc(Oc2ccc3c(c2C(F)F)C(O)CS3(=O)=O)c1 (stereo not drawn) [Compound 374] | –
250 to 1000 nM | 250 to 1000 nM | – | N#Cc1cc(F)cc(Oc2ccc3c(c2F)C(O)C(F)(F)S3(=O)=O)c1 (stereo not drawn) [Compound 434] | –
> 1000 nM | > 1000 nM | – | O=S(=O)(c1ccc(Oc2cc(F)cc(Cl)c2)c(Cl)c1CNCCF)C(F)(F)F [Compound 114] | –
250 to 1000 nM | 250 to 1000 nM | – | O=S1(=O)c2ccc(Oc3cncc(Cl)c3)c(Cl)c2[C@@H](O)C1(F)F [Compound 432] | –
< 50 nM | < 50 nM | – | O=S(=O)(c1ccc(OCC(F)(F)F)c2c1[C@H](O)C(F)(F)C2)C(F)(F)F [Compound 675] | –
250 to 1000 nM | > 1000 nM | – | O=C1c2c(S(=O)(=O)C(F)F)ccc(Oc3cncc(Cl)c3)c2CC1(F)F [Compound 182] | –
250 to 1000 nM | 250 to 1000 nM | – | N#Cc1cc(F)cc(Oc2ccc(S(=O)(=O)C(F)F)c3c2CC(F)(F)[C@H]3N)c1 [Compound 207] | –
< 50 nM | < 50 nM | – | CCCOc1ccc(C(F)(F)F)c2c1CC(F)(F)[C@H]2O [Compound 704] | –
50 to 249 nM | > 1000 nM | – | N#Cc1cc(F)cc(Oc2ccc(S(=O)(=O)C(F)(F)F)c(C#N)c2Br)c1 [Compound 100] | –
50 to 249 nM | 250 to 1000 nM | – | N#Cc1cc(F)cc(Oc2ccc(S(=O)(=O)C(F)F)c(C#N)c2Cl)c1 [Compound 39] | –

IC50 [1, 2] | EC50 (786-O-Hif-Luc cells; [3]) | EC50 (786-O-Hif-Luc cells; [5]) | SMILES | IC50 [1, 4]
< 50 nM | < 50 nM | – | O=S(=O)(c1ccc(OC2CCC2)c2c1C(O)C(F)(F)C2)C(F)(F)F (stereo not drawn) [Compound 602] | –
< 50 nM | 250 to 1000 nM | – | CC(Oc1ccc(S(C)(=O)=O)c2c1[C@@H](F)C(F)(F)[C@H]2O)C(F)F (stereo partly drawn) [Compound 774] | –
< 50 nM | < 50 nM | – | C[C@]1(C#N)C[C@@H](Oc2ccc(S(=O)(=O)C(F)(F)F)c3c2C[C@@H](F)[C@H]3O)C1 [Compound 794] | –
> 1000 nM | > 1000 nM | – | CS(=O)(=O)N[C@H]1C[C@@H](Oc2ccc(S(=O)(=O)C(F)(F)F)c3c2CC(F)(F)[C@H]3O)C1 [Compound 726] | –
< 50 nM | < 50 nM | – | N#CC1(COc2ccc(S(=O)(=O)C(F)(F)F)c3c2C[C@@H](F)[C@H]3O)CC1 [Compound 661] | –
> 1000 nM | > 1000 nM | – | O[C@H]1c2c(C(F)(F)F)ccc(OC(F)F)c2CC1(F)F [Compound 670] | –
50 to 249 nM | 50 to 249 nM | – | O=S(=O)(c1ccc(O[C@@H]2CCCOC2)c2c1[C@H](O)C(F)(F)C2)C(F)(F)F [Compound 730] | –
250 to 1000 nM | > 1000 nM | – | N#Cc1cc(F)cc(Oc2ccc(S(=O)(=O)C(F)F)cc2C#N)c1 [Compound 134] | –
– | > 1000 nM | – | CS(=O)(=O)c1ccc(Oc2cc(F)cc(C#N)c2)c2c1C(O)CC2 (stereo not drawn) [Compound 222] | –
– | > 1000 nM | – | N#CC1(COc2ccc3c(c2C(F)F)C(O)C(F)(F)S3(=O)=O)CC1 (stereo not drawn) [Compound 455] | –
– | 50 to 249 nM | – | O=S1(=O)c2ccc(Oc3cc(F)cc(F)c3)c(C(F)F)c2C(O)C1F (stereo not drawn) [Compound 369] | –
– | < 50 nM | – | N#Cc1cc(F)cc(Oc2ccc(S(=O)(=O)C(F)F)c3c2CC(F)(F)C3O)c1 (stereo not drawn) [Compound 11] | –
– | – | 50 to 249 nM | N#Cc1cc(F)cc(Oc2ccc(S(=O)(=O)C(F)(F)F)c3c2CC(F)(F)[C@H]3N)c1 [Compound 290] | –
– | 50 to 249 nM | – | N#Cc1cc(F)cc(Oc2ccc(S(=O)(=O)C(F)F)c3c2CC(F)(F)[C@@H]3O)c1 [Compound 237] | –
– | 250 to 1000 nM | – | CS(=O)(=O)c1ccc(Oc2cc(F)cc(C#N)c2)c2c1[C@H](O)CC2 [Compound 287] | –
– | – | 50 to 249 nM | CNS(=O)(=O)c1ccc(Oc2cc(F)cc(C#N)c2)c2c1[C@H](O)C(F)(F)C2 [Compound 254] | –
– | > 1000 nM | – | O=[N+]([O-])c1ccc(Oc2cc(F)cc(Cl)c2)c2c1C(O)CC2 (stereo not drawn) [Compound 255] | –
– | 50 to 249 nM | – | N#Cc1cc(F)cc(Oc2ccc(S(N)(=O)=O)c3c2[C@@H](F)[C@@H](F)[C@H]3O)c1 [Compound 336] | –
– | – | 50 to 249 nM | CS(=O)(=O)c1ccc(Oc2cc(F)cc(C#N)c2)c2c1C(O)C(F)(F)C2 (stereo not drawn) [Compound 223] | –
– | – | < 50 nM | CS(=O)(=O)c1ccc(Oc2cc(F)cc(C#N)c2)c2c1[C@H](O)C(F)(F)C2 [Compound 163, (S)-3-((2,2-Difluoro-1-hydroxy-7-(methylsulfonyl)-2,3-dihydro-1H-inden-4-yl)oxy)-5-fluorobenzonitrile] | –
– | 250 to 1000 nM | – | N#Cc1cc(F)cc(Oc2ccc(S(=O)(=O)C(F)F)c(CO)c2Cl)c1 [Compound 42] | –
– | – | < 50 nM | N#Cc1cc(F)cc(Oc2ccc(S(N)(=O)=O)c3c2[C@@H](F)C(F)(F)[C@H]3O)c1 [Compound 338] | –

IC50 [1, 2] | EC50 (786-O-Hif-Luc cells; [3]) | EC50 (786-O-Hif-Luc cells; [5]) | SMILES | IC50 [1, 4]
– | – | 250 to 1000 nM | N#Cc1cccc(Oc2ccc(S(=O)(=O)C(F)F)c3c2CC[C@H]3O)c1 [Compound 156] | –
– | – | < 50 nM | [2H]C([2H])([2H])S(=O)(=O)c1ccc(Oc2cc(F)cc(C#N)c2)c2c1[C@]([2H])(O)C(F)(F)C2 [Compound 229] | –
– | 250 to 1000 nM | – | CS(=O)(=O)c1ccc(Oc2cc(F)cc(Cl)c2)c(C(F)F)c1CO [Compound 54] | –
– | 50 to 249 nM | – | O=S(=O)(c1ccc(Oc2ccc(F)c3[nH]ncc23)c2c1C(O)C(F)(F)C2)C(F)(F)F (stereo not drawn) [Compound 241] | –
– | – | 250 to 1000 nM | N#Cc1cc(F)cc(Oc2ccc(S(N)(=O)=O)c3c2[C@H](F)C(F)(F)[C@H]3O)c1 [Compound 339] | –
– | < 50 nM | – | N#Cc1cc(F)cc(Oc2ccc(S(=O)(=O)C(F)F)c3c2CC(F)(F)[C@H]3O)c1 [Compound 15, 3-[(1S)-7-(difluoromethylsulfonyl)-2,2-difluoro-1-hydroxy-indan-4-yl]oxy-5-fluoro-benzonitrile] | –
– | – | 250 to 1000 nM | CS(=O)(=O)c1ccc(Oc2cc(F)cc(C#N)c2)c2c1[C@H](O)[C@@H](F)C2 [Compound 271] | –
– | 250 to 1000 nM | – | N#Cc1cccc(Oc2ccc(S(=O)(=O)C(F)F)c(CO)c2Cl)c1 [Compound 43] | –
– | – | 50 to 249 nM | CS(=O)(=O)c1ccc(Oc2cc(F)cc(C#N)c2)c2c1[C@H](N)C(F)(F)C2 [Compound 165] | –
– | 250 to 1000 nM | – | CS(=O)(=O)c1ccc(Oc2cc(F)cc(C#N)c2)c2c1[C@H](O)[C@H](F)[C@H]2F [Compound 294] | –
– | – | < 50 nM | [2H][C@]1(O)c2c(S(C)(=O)=O)ccc(Oc3cc(F)cc(C#N)c3)c2CC1(F)F [Compound 247] | –
– | – | > 1000 nM | CS(=O)(=O)c1ccc(Oc2cc(F)cc(C#N)c2)c2c1[C@@H](O)C(F)(F)C2 [Compound 226] | –
– | < 50 nM | – | N#Cc1cc(F)cc(Oc2ccc(S(=O)(=O)CCl)c3c2CC(F)(F)[C@H]3O)c1 [Compound 215] | –
– | – | < 50 nM | N#Cc1cncc(Oc2ccc(S(=O)(=O)C(F)(F)F)c3c2CC(F)(F)[C@H]3O)c1 [Compound 235] | –
– | > 1000 nM | – | CC(C)Oc1ccc2c(c1C#N)C(C)(O)C(F)(F)S2(=O)=O (stereo not drawn) [Compound 456] | –
– | – | 50 to 249 nM | N#Cc1cc(F)cc(Oc2ccc(S(=O)(=O)C(F)(F)F)c3c2CC[C@H]3O)c1 [Compound 57] | –
– | 250 to 1000 nM | – | N[C@@H]1c2c(ccc(Oc3cc(F)cc(Br)c3)c2Br)S(=O)(=O)C1(F)F [Compound 462] | –
– | – | 250 to 1000 nM | C[C@H]1C[C@@H](O)c2c(S(=O)(=O)C(F)F)ccc(Oc3cc(F)cc(Cl)c3)c21 [Compound 7a] | –
– | – | 50 to 249 nM | N#Cc1cc(F)cc(Oc2ccc(S(N)(=O)=O)c3c2CC(F)(F)[C@H]3O)c1 [Compound 252] | –
– | > 1000 nM | – | Cc1c(S(C)(=O)=O)ccc(Oc2cc(F)cc(Cl)c2)c1C#N [Compound 50] | –

SMILES | IC50 [1, 2] | EC50 (786-O-Hif-Luc cells; [3]) | EC50 (786-O-Hif-Luc cells; [5]) | IC50 [1, 4]
O=S1(=O)c2ccc(Oc3cc(F)cc(Cl)c3)c(Br)c2[C@H](O)C1(F)F [Compound 405] | – | – | 50 to 249 nM | 50 to 249 nM
[2H]C1(O)c2c(ccc(Oc3cc(F)cc(Cl)c3)c2C(F)F)S(=O)(=O)C1(F)F (stereo not drawn) [Compound 371] | – | – | < 50 nM | < 50 nM
CS(=O)(=O)c1ccc(Oc2cc(F)cc(C#N)c2)c2c1[C@H](O)[C@H](F)[C@@H]2F [Compound 289, 3-[(1S,2S,3R)-2,3-difluoro-1-hydroxy-7-methylsulfonyl-indan-4-yl]oxy-5-fluoro-benzonitrile] | – | – | < 50 nM | –

Reference: patent publication US10278942B2 (PELOTON THERAPEUTICS, INC., priority 2015, dated 2019)
